Residues, ends and D or L forms follow the SMILES beside them.
Legend:
MPO = biological target: T1, MPO (Homo sapiens, UniProt P05164); test: MPO-mediated nitration of BSA (western blot for nitrotyrosine); format: biochemical; parameters: purchased Lee Biosolutions (St. Louis, Mo.); conditions: for MPO-mediated BSA nitration (in words): H2O2 100 μM, nitrite 100 μM
T1 sequence (P05164 49-745): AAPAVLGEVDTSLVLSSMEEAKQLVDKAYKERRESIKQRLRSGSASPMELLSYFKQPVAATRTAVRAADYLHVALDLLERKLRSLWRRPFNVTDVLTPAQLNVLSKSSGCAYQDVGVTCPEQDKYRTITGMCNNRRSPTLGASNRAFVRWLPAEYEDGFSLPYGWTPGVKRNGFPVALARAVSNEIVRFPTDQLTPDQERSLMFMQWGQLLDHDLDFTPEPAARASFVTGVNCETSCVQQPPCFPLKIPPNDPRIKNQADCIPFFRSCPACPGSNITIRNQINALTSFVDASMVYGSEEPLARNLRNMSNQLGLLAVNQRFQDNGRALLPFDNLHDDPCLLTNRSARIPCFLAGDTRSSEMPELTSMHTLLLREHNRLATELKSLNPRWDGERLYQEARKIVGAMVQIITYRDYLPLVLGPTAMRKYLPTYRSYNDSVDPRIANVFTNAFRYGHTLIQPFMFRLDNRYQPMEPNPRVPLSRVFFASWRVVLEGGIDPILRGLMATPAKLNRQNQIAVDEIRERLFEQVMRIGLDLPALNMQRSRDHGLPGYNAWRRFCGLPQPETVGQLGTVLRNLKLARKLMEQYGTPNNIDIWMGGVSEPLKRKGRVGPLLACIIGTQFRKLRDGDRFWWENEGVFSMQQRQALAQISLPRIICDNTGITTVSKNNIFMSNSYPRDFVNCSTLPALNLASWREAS
Experimental: MPO-mediated Nitration of Bovine Serum Albumin (BSA). BSA (0.5 mg/mL) was incubated with MPO (20 nM), H2O2 (100 μM), nitrite (100 μM) and increasing concentrations of KYC in phosphate buffer (100 mM, pH 7.4) containing DTPA (100 μM) for 30 min. Reactions were stopped by addition of catalase. Nitrotyrosine formation was assessed by western blot analysis.
MPO-mediated Nitration of Bovine Serum Albumin (BSA): BSA (0.5 mg/mL) was incubated with MPO (20 nM), H2O2 (25 μM), NaNO2 (50 μM) and increasing concentrations of KYC in phosphate buffer (100 mM, pH 7.4) containing DTPA (100 μM) for 30 min. Reactions were halted by addition of catalase (2,000 units/mL). NO2Tyr formation was assessed by western blot analysis with an anti-NO2Tyr rabbit polyclonal antibody (EMD, Gibbstown, N.J.).

[1] = test system: facialis arteries from non-treated SCD mice; test: Vasodilatation of facialis arteries from untreated SCD mice, peptide added ex vivo; parameters: species or system mouse; conditions: KYC 1.5 μg/ml, 20 min
Experimental: For vessels treated with KYC (ex-vivo): Using untreated SCD mice, the vessels were isolated/cannulated the same as for the mice treated with KYC in vivo. After the control dose-response curve using acetylcholine (ACh, 10^−7-10^−4 M) and subsequent washing, the vessels were incubated with KYC 1.5 μg/ml for 20 minutes, pre-constricted, and exposed to acetylcholine (ACh, 10^−7-10^−4 M). Vasodilation to papaverine (2.0×10^−4 M) was determined after all treatments to ensure smooth muscle viability. Vasodilation was calculated as a percent of maximal vessel diameter change.

SCD mice = test: WBC counts in treated SCD mice (cytometry); format: in vivo, mouse; conditions: KYC-treated SCD mice
Experimental: […] vascular function in SCD mice. To determine whether inhibiting MPO improves vascular function and/or reduces inflammation in vivo, SCD mice were treated with KYC for three weeks. […] Such physiological and structural changes are consistent with immunofluorescent studies showing that chlorotyrosine and MPO levels are reduced in the aortas of KYC-treated SCD mice compared with non-treated SCD mice (FIG. 13). High WBC counts are indicative of on-going inflammation in SCD and predictive of future vaso-occlusive events. Accordingly, WBC levels were quantified in the SCD mice using standard cytometry assays.

BAEC = test: MPO-mediated BAEC injury (cell morphology); format: cell-based, bovine; conditions: MPO 2.5 μg/ml, H2O2 50 μM
Experimental: MPO-mediated BAEC Injury: BAEC (passage 6-8) were cultured in 24 well plates in DMEM containing 10% FBS until 70-80% confluent. The cells were washed with Hank's balanced salt solution (HBSS) 3 times and incubated with MPO (2.5 μg/mL) and H2O2±KYC at the concentrations indicated in HBSS for 30 min. Finally, BAEC were examined visually and images captured for permanent record using a Nikon Eclipse microscope (Model TS 100) fitted with a Nikon Digital Sight DS-U2 camera and NIS-Elements F 3.0 imaging software. Images are representative of 3 independent experiments.
KYC protects BAEC from MPO-induced injury. […] BAEC in 96 well were treated with 100 μl of HBSS containing MPO (2.5 μg/ml) and H2O2 (50 μM) for 20 min with or without KYC. Changes in cell morphology were recorded as described in a previous report by others.

inhibition at 12.5 µM (MPO; 12.5 μM KYC, H2O2 25 μM, NaNO2 50 μM, read-out: Inhibition of NO2Tyr formation in BSA): 50%
MPO-mediated BSA nitration (in words) (MPO; 30 μM KYC): inhibits
NO2Tyr formation in BSA (in words) (MPO; 50 μM KYC, H2O2 25 μM, NaNO2 50 μM): essentially ablated
MPO-mediated BSA nitration (in words) (MPO; 250 μM KYC): essentially ablates
Compound: CC(=O)N[C@@H](CCCCN)C(=O)N[C@@H](Cc1ccc(O)cc1)C(=O)N[C@@H](CS)C(N)=O [KYC, N-acetyl Lysyltyrosylcysteine Amide] (Ac-Lys-Tyr-Cys-NH2)
Vasodilatation in response to ACh, peptide added to vessel bath (in words) [1]: did not increase vasodilatation
Reduction of WBC counts (in words) (SCD mice): more than half
BAEC morphology after MPO/H2O2 (in words) (BAEC; 50 μM KYC): almost the same morphology as cultures that were not exposed to MPO
Protection of BAEC from MPO-induced injury (in words) (BAEC; 20 min, increasing KYC): dose-dependently increased protection

From patent US8937039B2, “Peptide-based peroxidase inhibitors and methods of using same” (The Medical College of Wisconsin, Inc., priority 2009, dated 2015)
